Assays:
Test in all cases: Test B pre-/postemergence plant response
Type in all cases: in vivo
[1] = tested on: Italian ryegrass (Lolium multiflorum)
Description: (§1) Seeds of plant species selected from blackgrass (Alopecurus myosuroides), downy bromegrass (Bromus tectorum), green foxtail (Setaria viridis), Italian ryegrass (Lolium multiflorum), wheat (Triticum aestivum), wild oat (Avena fatua), deadnettle (henbit deadnettle, Lamium amplexicaule), galium (catchweed bedstraw, Galium aparine), bermudagrass (Cynodon dactylon), Surinam grass (Brachiaria decumbens), cocklebur (Xanthium strumarium), corn (Zea mays), large crabgrass (Digitaria sanguinalis), woolly cupgrass (Eriochloa villosa), giant foxtail (Setaria faberii), goosegrass (Eleusine indica), johnsongrass (Sorghum halepense), kochia (Kochia scoparia), lambsquarters (Chenopodium album), morningglory (Ipomoea coccinea), nightshade (eastern black nightshade, Solanum ptycanthum), yellow nutsedge (Cyperus esculentus), pigweed (Amaranthus retroflexus), ragweed (common ragweed, Ambrosia elatior), Russian thistle (Salsola kali), soybean (Glycine max), sunflower (common oilseed sunflower, Helianthus annuus) and velvetleaf (Abutilon theophrasti) were planted into a blend of loam soil and sand and treated preemergence with test compounds formulated in a non-phytotoxic solvent mixture which included a surfactant.
(§2) At the same time, plants selected from these crop and weed species and also winter barley (Hordeum vulgare), canarygrass (Phalaris minor), chickweed (Stellaria media) and windgrass (Apera spica-venti) were planted in pots containing Redi-Earth® planting medium (Scotts Company, 14111 Scottslawn Road, Marysville, Ohio 43041) comprising spaghnum peat moss, vermiculite, wetting agent and starter nutrients and treated with postemergence applications of some of the test chemicals formulated in the same manner. Plants ranged in height from 2 to 18 cm (1- to 4-leaf stage) for postemergence treatments.
(§3) Treated plants and controls were maintained in a greenhouse for 13 to 15 days, after which time all treated plants were visually evaluated and compared to controls. Plant response ratings, summarized in Table B, are based on a scale of 0 to 100 where 0 is no effect and 100 is complete control. A dash (-) response means no test result.

[2] = tested on: Surinam grass (Brachiaria decumbens)
Description: as §1, §2, §3

[3] = tested on: bermudagrass (Cynodon dactylon)
Description: as §1, §2, §3

[4] = tested on: blackgrass (Alopecurus myosuroides)
Description: as §1, §2, §3

[5] = tested on: cocklebur (Xanthium strumarium)
Description: as §1, §2, §3

corn (Zea mays) = tested on: corn (Zea mays)
Description: as §1, §2, §3

[6] = tested on: downy bromegrass (Bromus tectorum)
Description: as §1, §2, §3

[7] = tested on: green foxtail (Setaria viridis)
Description: as §1, §2, §3

kochia (Kochia scoparia) = tested on: kochia (Kochia scoparia)
Description: as §1, §2, §3

[8] = tested on: lambsquarters (Chenopodium album)
Description: as §1, §2, §3

[9] = tested on: large crabgrass (Digitaria sanguinalis)
Description: as §1, §2, §3

[10] = tested on: pigweed (Amaranthus retroflexus)
Description: as §1, §2, §3

[11] = tested on: ragweed (common ragweed, Ambrosia elatior)
Description: as §1, §2, §3

soybean (Glycine max) = tested on: soybean (Glycine max)
Description: as §1, §2, §3

[12] = tested on: velvetleaf (Abutilon theophrasti)
Description: as §1, §2, §3

wild oat (Avena fatua) = tested on: wild oat (Avena fatua)
Description: as §1, §2, §3

[13] = tested on: yellow nutsedge (Cyperus esculentus)
Description: as §1, §2, §3

[14] = 250 g ai/ha, Preemergence, 0 to 100 scale
[15] = Postemergence, 31 g ai/ha, scale 0 to 100 (0 no effect, 100 complete control)
[16] = Postemergence, 62 g ai/ha, scale 0 (no effect) to 100 (complete control), 13 to 15 days
[17] = Postemergence, 125 g ai/ha, visual rating after 13 to 15 days, scale 0 (no effect) to 100 (complete control)
[18] = Postemergence, 250 g ai/ha, scale 0 to 100
[19] = Preemergence, 31 g ai/ha, scale 0 to 100 (0 no effect, 100 complete control)
[20] = Preemergence, 62 g ai/ha, scale 0 to 100, 0 no effect, 100 complete control
[21] = Preemergence, 125 g ai/ha, 0 to 100 scale

Substance: 5-[(2-hydroxy-6-oxo-1-cyclohexen-1-yl)carbonyl]-3-phenyl-2-(3-pyridinyl)-4(3H)-pyrimidone [Compound 113]
- Plant response rating, Ryegrass, Italian [1, 14]: 0
- Plant response rating, Ryegrass, Italian [1, 15]: 0
- Plant response rating, Ryegrass, Italian [1, 16]: 0
- Plant response rating, Ryegrass, Italian [1, 17]: 0
- Ryegrass, Italian plant response rating [1, 18]: 20
- Plant response rating, Ryegrass, Italian [1, 19]: 0
- Plant response rating, Ryegrass, Italian [1, 20]: 0
- Ryegrass, Italian plant response rating [1, 21]: 0
- Plant response rating, Surinam Grass [2, 14]: 10
- Plant response rating, Surinam Grass [2, 15]: 0
- Plant response rating, Surinam Grass [2, 16]: 10
- Plant response rating, Surinam Grass [2, 17]: 20
- Surinam Grass plant response rating [2, 18]: 25
- Plant response rating, Surinam Grass [2, 19]: 0
- Plant response rating, Surinam Grass [2, 20]: 0
- Surinam Grass plant response rating [2, 21]: 0
- Plant response rating, Bermudagrass [3, 14]: 98
- Plant response rating, Bermudagrass [3, 15]: 35
- Plant response rating, Bermudagrass [3, 16]: 45
- Plant response rating, Bermudagrass ([3]; Postemergence, 125 g ai/ha, scale 0 to 100 (0 no effect, 100 complete control), 13 to 15 days): 65
- Bermudagrass plant response rating [3, 18]: 70
- Plant response rating, Bermudagrass [3, 19]: 0
- Plant response rating, Bermudagrass [3, 20]: 0
- Bermudagrass plant response rating [3, 21]: 85
- Plant response rating, Blackgrass [4, 14]: 0
- Plant response rating, Blackgrass [4, 15]: 0
- Plant response rating, Blackgrass [4, 16]: 0
- Plant response rating, Blackgrass [4, 17]: 0
- Blackgrass plant response rating [4, 18]: 5
- Plant response rating, Blackgrass [4, 19]: 0
- Plant response rating, Blackgrass [4, 20]: 0
- Blackgrass plant response rating [4, 21]: 0
- Plant response rating, Cocklebur [5, 14]: 75
- Plant response rating, Cocklebur [5, 15]: 45
- Plant response rating, Cocklebur [5, 16]: 45
- Plant response rating, Cocklebur [5, 17]: 65
- Cocklebur plant response rating [5, 18]: 70
- Plant response rating, Cocklebur [5, 19]: 0
- Plant response rating, Cocklebur [5, 20]: 0
- Cocklebur plant response rating [5, 21]: 0
- Plant response rating, Corn (corn (Zea mays); [14]): 0
- Plant response rating, Corn (corn (Zea mays); [15]): 0
- Plant response rating, Corn (corn (Zea mays); [16]): 0
- Plant response rating, Corn (corn (Zea mays); [17]): 0
- Corn plant response rating (corn (Zea mays); [18]): 10
- Plant response rating, Corn (corn (Zea mays); [19]): 0
- Plant response rating, Corn (corn (Zea mays); [20]): 0
- Corn plant response rating (corn (Zea mays); [21]): 0
- Plant response rating, Bromegrass, Downy [6, 14]: 0
- Plant response rating, Bromegrass, Downy [6, 15]: 0
- Plant response rating, Bromegrass, Downy [6, 16]: 0
- Plant response rating, Bromegrass, Downy [6, 17]: 5
- Bromegrass, Downy plant response rating [6, 18]: 5
- Plant response rating, Bromegrass, Downy [6, 19]: 0
- Plant response rating, Bromegrass, Downy [6, 20]: 0
- Bromegrass, Downy plant response rating [6, 21]: 0
- Plant response rating, Foxtail, Green [7, 14]: 0
- Plant response rating, Foxtail, Green [7, 15]: 5
- Plant response rating, Foxtail, Green [7, 16]: 20
- Plant response rating, Foxtail, Green [7, 17]: 30
- Foxtail, Green plant response rating [7, 18]: 40
- Plant response rating, Foxtail, Green [7, 19]: 0
- Plant response rating, Foxtail, Green [7, 20]: 0
- Foxtail, Green plant response rating [7, 21]: 0
- Plant response rating, Kochia (kochia (Kochia scoparia); [14]): 100
- Plant response rating, Kochia (kochia (Kochia scoparia); [15]): 0
- Plant response rating, Kochia (kochia (Kochia scoparia); [16]): 45
- Plant response rating, Kochia (kochia (Kochia scoparia); [17]): 45
- Kochia plant response rating (kochia (Kochia scoparia); [18]): 50
- Plant response rating, Kochia (kochia (Kochia scoparia); [19]): 15
- Plant response rating, Kochia (kochia (Kochia scoparia); [20]): 100
- Kochia plant response rating (kochia (Kochia scoparia); [21]): 100
- Plant response rating, Lambsquarters [8, 14]: 100
- Plant response rating, Lambsquarters [8, 15]: 0
- Plant response rating, Lambsquarters [8, 16]: 65
- Plant response rating, Lambsquarters [8, 17]: 65
- Lambsquarters plant response rating [8, 18]: 75
- Plant response rating, Lambsquarters [8, 19]: 100
- Plant response rating, Lambsquarters [8, 20]: 100
- Lambsquarters plant response rating [8, 21]: 100
- Plant response rating, Crabgrass, Large [9, 14]: 95
- Plant response rating, Crabgrass, Large [9, 15]: 30
- Plant response rating, Crabgrass, Large [9, 16]: 45
- Plant response rating, Crabgrass, Large [9, 17]: 45
- Crabgrass, Large plant response rating [9, 18]: 60
- Plant response rating, Crabgrass, Large [9, 19]: 0
- Plant response rating, Crabgrass, Large [9, 20]: 0
- Crabgrass, Large plant response rating [9, 21]: 45
- Plant response rating, Pigweed [10, 14]: 100
- Plant response rating, Pigweed [10, 15]: 75
- Plant response rating, Pigweed [10, 16]: 75
- Plant response rating, Pigweed [10, 17]: 90
- Pigweed plant response rating [10, 18]: 98
- Plant response rating, Pigweed [10, 19]: 100
- Plant response rating, Pigweed [10, 20]: 100
- Pigweed plant response rating [10, 21]: 100
- Plant response rating, Ragweed [11, 14]: 90
- Plant response rating, Ragweed [11, 15]: 50
- Plant response rating, Ragweed [11, 16]: 65
- Plant response rating, Ragweed [11, 17]: 80
- Ragweed plant response rating [11, 18]: 85
- Plant response rating, Ragweed [11, 19]: 0
- Plant response rating, Ragweed [11, 20]: 0
- Ragweed plant response rating [11, 21]: 15
- Plant response rating, Soybean (soybean (Glycine max); [14]): 30
- Plant response rating, Soybean (soybean (Glycine max); [15]): 60
- Plant response rating, Soybean (soybean (Glycine max); [16]): 65
- Plant response rating, Soybean (soybean (Glycine max); [17]): 75
- Soybean plant response rating (soybean (Glycine max); [18]): 85
- Plant response rating, Soybean (soybean (Glycine max); [19]): 0
- Plant response rating, Soybean (soybean (Glycine max); [20]): 0
- Soybean plant response rating (soybean (Glycine max); [21]): 20
- Plant response rating, Velvetleaf [12, 14]: 100
- Plant response rating, Velvetleaf [12, 15]: 70
- Plant response rating, Velvetleaf [12, 16]: 80
- Plant response rating, Velvetleaf [12, 17]: 90
- Velvetleaf plant response rating [12, 18]: 98
- Plant response rating, Velvetleaf [12, 19]: 40
- Plant response rating, Velvetleaf [12, 20]: 85
- Velvetleaf plant response rating [12, 21]: 100
- Plant response rating, Oat, Wild (wild oat (Avena fatua); [14]): 0
- Plant response rating, Oat, Wild (wild oat (Avena fatua); [15]): 0
- Plant response rating, Oat, Wild (wild oat (Avena fatua); [16]): 0
- Plant response rating, Oat, Wild (wild oat (Avena fatua); [17]): 0
- Oat, Wild plant response rating (wild oat (Avena fatua); [18]): 10
- Plant response rating, Oat, Wild (wild oat (Avena fatua); [19]): 0
- Plant response rating, Oat, Wild (wild oat (Avena fatua); [20]): 0
- Oat, Wild plant response rating (wild oat (Avena fatua); [21]): 0
- Plant response rating, Nutsedge, Yellow [13, 14]: 55
- Plant response rating, Nutsedge, Yellow [13, 15]: 0
- Plant response rating, Nutsedge, Yellow [13, 16]: 0
- Plant response rating, Nutsedge, Yellow [13, 17]: 0
- Nutsedge, Yellow plant response rating [13, 18]: 0
- Plant response rating, Nutsedge, Yellow [13, 19]: 0
- Plant response rating, Nutsedge, Yellow [13, 20]: 10
- Nutsedge, Yellow plant response rating [13, 21]: 15

Source: patent publication US8952024B2, “Herbicidal pyrimidone derivatives” (E I du Pont de Nemours and Company, priority 2009, dated 2015)
